Data: US9273063B2, “Method for preparing a rifaximin product” (Salix Pharmaceuticals, Inc., priority 2007, dated 2016)

Key:
[1] = Dissolution in ethanol, amorphous vs crystalline form; format: physicochemical; conditions: without stirring
Experimental: The dissolution profile of the substance in amorphous form was also determined, and compared with that of the substance in crystalline form.

[2] = Water solubility in dissolution tester (distilled water, 37° C., 100 rpm, spectrophotometric analysis); format: physicochemical; conditions: 37° C.±0.5° C.
Experimental: Moreover, with regard to water solubility, after conditioning a dissolution tester (Pharma Test Type PTW S III s/n 5390) using distilled water at a temperature of 37° C.±0.5° C. at a speed of 100 rpm, four dissolutions were carried out, in each of which the first three vessels of the dissolution tester were used for the substance in crystalline form and the last three for the substance in amorphous form.
10 ml of the solute were withdrawn from each vessel after 15 minutes of stirring; the withdrawn samples were filtered with 0.45 μm filters and subjected to spectophotometric analysis, repeating the operation after 30 and 60 minutes.

SMILES | dissolution behaviour in ethanol [1] | dissolved percentage compared with that of the substance in crystalline form [2] | concentration of dissolved substance relative to that of the substance in amorphous form ([2]; after one hour of dissolution)
CO[C@H]1/C=C/O[C@@]2(C)Oc3c(C)c(O)c4c(O)c(c5c(nc6cc(C)ccn65)c4c3C2=O)NC(=O)/C(C)=C\C=C\[C@H](C)[C@H](O)[C@@H](C)[C@@H](O)[C@@H](C)[C@H](OC(C)=O)[C@@H]1C [amorphous form, Rifaximin] | easily dissolves in ethanol even without stirring | one order of magnitude greater | –
CO[C@H]1/C=C/O[C@@]2(C)Oc3c(C)c(O)c4c(O)c(c5c(nc6cc(C)ccn65)c4c3C2=O)NC(=O)/C(C)=C\C=C\[C@H](C)[C@H](O)[C@@H](C)[C@@H](O)[C@@H](C)[C@H](OC(C)=O)[C@@H]1C [crystalline form, Rifaximin] | less wettable | – | about 7%
